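1) Cells in 96-well plates. 2) Compound, 48 h, 5 concentrations. 3) Linear interpolation between surrounding doses. 4) Unreached endpoint = highest concentration. The concentration for 50% growth inhibition is given as GI50.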 Active and inactive are the calls of the source. No stated cut-off is given here; in the data, active = GI50 up to about 1.1 µM and inactive = higher.
Columns and labels:
Experiment in all cases: NCI tumour cell line growth inhibition, 48 h
[1] = test system: U-251
[2] = test system: SN12C
[3] = test system: SK-OV-3
[4] = test system: SF-539
[5] = test system: RXF 393
[6] = test system: CCRF-CEM
[7] = test system: MOLT-4
[8] = test system: Malme-3M
[9] = test system: SNB-19
[10] = test system: SW-620
[11] = test system: HCT-116
[12] = test system: TK-10
[13] = test system: COLO 205
[14] = test system: KM12
[15] = test system: UACC-62
[16] = test system: OVCAR-3
[17] = test system: SF-268
[18] = test system: HT-29
[19] = test system: OVCAR-5

Measured: GI50

C=CCC12CCC(=O)C=C1CCC1(C2)OCCO1 (stereo not given)
inactive: [1] > 100 µM | [2] > 100 µM | [3] > 100 µM | [4] > 100 µM | [5] > 100 µM | [6] 53.1 µM | [7] > 100 µM | [8] > 100 µM | [9] > 100 µM | [10] > 100 µM | [11] > 100 µM | [12] > 100 µM | [13] > 100 µM | [14] > 100 µM | [15] > 100 µM | [16] > 100 µM | [17] > 100 µM

Cc1ccc(-c2c(C#N)c(-c3ccccc3)c(C#N)c(=O)n2NS(=O)(=O)c2ccc(C)cc2)cc1
inactive: [1] 45.2 µM | [2] 61.2 µM | [3] 79.8 µM | [4] 13.3 µM | [5] 62.2 µM | [6] 19.6 µM | [7] 12.9 µM | [18] 50.6 µM | [8] > 100 µM | [9] 5.56 µM | [10] 14.8 µM | [11] 22.9 µM | [12] 40.7 µM | [13] 95.9 µM | [14] 38.5 µM | [15] 23.3 µM | [19] > 100 µM | [17] > 100 µM

N#CC(C#N)c1ccc(C(=O)N2CCC[C@H]2CO)cc1
inactive: [1] > 100 µM | [2] > 100 µM | [3] > 100 µM | [4] > 100 µM | [5] > 100 µM | [6] > 100 µM | [7] > 100 µM | [18] > 100 µM | [8] > 100 µM | [9] > 100 µM | [10] > 100 µM | [12] > 100 µM | [13] > 100 µM | [14] > 100 µM | [15] > 100 µM | [19] > 100 µM | [16] > 100 µM | [17] > 100 µM

C#CCC(O)c1ccccc1C(O)CC#C (stereo not given)
inactive: [2] > 100 µM | [3] 39.7 µM | [5] 29 µM | [6] > 100 µM | [7] > 100 µM | [18] > 100 µM | [8] 79.4 µM | [9] > 100 µM | [10] > 100 µM | [12] 97.5 µM | [13] > 100 µM | [14] > 100 µM | [15] > 100 µM | [19] > 100 µM | [16] > 100 µM

N#Cc1cc([N+](=O)[O-])ccc1NC(=O)C(=O)C(C(=O)/C=C/c1ccccc1)C1OC(=O)c2ccccc21 (stereo not given)
inactive: [1] > 100 µM | [2] > 100 µM | [3] > 100 µM | [4] > 100 µM | [5] 60.5 µM | [6] 8.65 µM | [18] > 100 µM | [8] > 100 µM | [9] > 100 µM | [10] > 100 µM | [11] > 100 µM | [12] > 100 µM | [13] > 100 µM | [14] > 100 µM | [15] > 100 µM | [19] > 100 µM | [16] > 100 µM | [17] > 100 µM

Cc1cc(C)nc(NS(=O)(=O)c2ccc(Nc3c4ccccc4nc4c(C(=O)Nc5ccc(S(=O)(=O)N=C(N)N)cc5)cccc34)cc2)n1
inactive: [1] 98.9 µM | [2] > 100 µM | [3] > 100 µM | [4] > 100 µM | [5] 24.4 µM | [6] > 100 µM | [7] > 100 µM | [18] > 100 µM | [8] 78.7 µM | [9] 35.7 µM | [10] > 100 µM | [12] > 100 µM | [13] > 100 µM | [14] > 100 µM | [15] > 100 µM | [19] 51.8 µM | [16] > 100 µM | [17] > 100 µM

COCCN1C2=CCCCC2=Nc2c1nc(N)[nH]c2=O
inactive: [1] > 100 µM | [2] > 100 µM | [3] > 100 µM | [4] > 100 µM | [5] > 100 µM | [6] > 100 µM | [7] > 100 µM | [18] > 100 µM | [8] > 100 µM | [9] > 100 µM | [11] > 100 µM | [12] > 100 µM | [13] > 100 µM | [14] > 100 µM | [15] > 100 µM | [19] > 100 µM | [16] > 100 µM | [17] > 100 µM

COc1cc(-c2c(C)c(C)nc(OC)c2C#N)cc(OC)c1OC
inactive: [1] > 100 µM | [2] > 100 µM | [3] > 100 µM | [4] > 100 µM | [5] 44.2 µM | [6] > 100 µM | [7] 39.9 µM | [18] > 100 µM | [8] > 100 µM | [9] > 100 µM | [10] > 100 µM | [11] > 100 µM | [12] > 100 µM | [13] > 100 µM | [14] > 100 µM | [15] 40.6 µM | [16] > 100 µM | [17] > 100 µM

— ChEMBL document CHEMBL1201862, “PubChem BioAssay data set” (2004)
